From patent US20240374631A1, “A COMPOSITION FOR IMPROVING GUT MICROBIOTA, BEHAVIOURAL PATTERN, ALPHA-SYNUCLEIN LEVELS, SLEEP PATTERN AND/OR SERUM MELATONIN” (GN Corporation Co Ltd, priority 2021, published 2024)

Test system: gut microbiota
Test: Gut microbiome analysis (16S rRNA sequencing of fecal samples) in STAM model of NASH
Type: in vivo, C57BL/6J mice
Description: The study is reported in accordance with Animal Research: Reporting of In Vivo Experiments (ARRIVE) guidelines. C57BL/6J mice were obtained from Japan SLC, Inc. (Japan). All animals used in this study were cared for under the following guidelines: Act on Welfare and Management of Animals (Ministry of the Environment, Japan, Act No. 105 of Oct. 1, 1973), standards relating to the care and management of laboratory animals and relief of pain (Notice No. 88 of the Ministry of the Environment, Japan, Apr. 28, 2006) and the guidelines for proper conduct of animal experiments (Science Council of Japan, Jun. 1, 2006). Protocol approvals were obtained from SMC Laboratories, Japan's IACUC (Study reference no: […] Mice were maintained in a specific pathogen-free (SPF) facility under controlled conditions of temperature (23±3° C.), humidity (50±20%), lighting (12-hour artificial light and dark cycles; light from 8:00 to 20:00) and air exchange. The STAM model of NASH was induced as previously described [D10]. Mice were given a single subcutaneous injection of 200 μg streptozotocin (STZ, Sigma-Aldrich, USA) solution 2 days after birth and fed with a high-fat diet (HFD, 57 kcal % fat, Cat #HFD32, CLEA Japan, Inc., Japan) from 4-9 weeks of age. All mice develop liver steatosis and diabetes and at […] mice had established steatohepatitis, histologically. Studygroups: There were five study groups, described below. Eight mice were included in each study group. Eight NASH mice were orally administered vehicle supplemented with AFO-202 Beta Glucan at a dose of 1 mg/kg in a volume of 5 mL/kg once daily from 6 to 9 weeks of age. Eight NASH mice were orally administered vehicle supplemented with Telmisartan at a dose of 10 mg/kg once daily from 6 to 9 weeks of age. Frequency: Fecal samples were collected at the 6 weeks of age (before administration) and 9 weeks of age (before sacrifice). Procedure: At 6 weeks of age, fecal samples were collected from each mouse by clean catch method. […] A sterile petri dish was placed on the bench. Gently massage the abdomen, position the bottom of mouse over a fresh petri dish, and collect 1-2 fecal pellets. At sacrifice, fecal samples were aseptically collected from cecum. The tubes with feces were placed on ice immediately. These tubes were snap frozen in liquid nitrogen and stored at -80° C. for shipping. In this analysis, the 16S rRNA sequence data acquired by the next-generation sequencer from the fecal […] was used to perform community analysis using the QIIME2 program for microbial community analysis. The raw read data in FASTQ format output from the next-generation sequencer was trimmed to remove adapter sequences and low QV regions that may be included in the data. Cutadapt was used to remove adapter sequences from DNA sequencing reads. Trimmomatic was used as read trimming tool for Illumina NGS data. The adapter sequence was trimmed using the adapter trimming program “cutadapt” if the Trimming of the region at the end of the read sequence overlapped the corresponding sequence by at least one base (mismatch tolerance: 20%). When reads containing N were present in at least one of Read1 and Read2, both Read1 and Read2 were removed. Trimming of low QV regions was performed on the read data after processing using the QV trimming program “Trimmomatic” under the following conditions. The window of 20 bases is slid from the 5' side, and the area where the average QV is less than 20 is trimmed. After trimming, only the reads with more than 50 bases remaining in both Read1 and Read2 were taken as output. The microbial community analysis based on 16S rRNA sequence was performed on the sequence data trimmed in the previous section using the microbial community analysis program “QIIME2”. The annotation program “sklearn” included in QIIME2 is used to annotate the ASV (OTU) sequences. […]

CCCc1nc2c(C)cc(-c3nc4ccccc4n3C)cc2n1Cc1ccc(-c2ccccc2C(=O)O)cc1 [Telmisartan]
Abundance Lachnospiraceae/[Ruminococcus]/gnavus (post, line r79): 260
Abundance Bacteroidaceae/Bacteroides/— (post, line r80): 1596
Abundance S24-7/—/— (post, line r81): 125
Abundance Lachnospiraceae/[Ruminococcus]/gnavus (post, line r83): 281
Abundance Ruminococcaceae/Oscillospira/— (post, line r84): 393
Abundance Alcaligenaceae/Sutterella/— (post, line r86): 63
Abundance S24-7/—/— (post, line r87): 54
Abundance Other/Other/Other (post, line r90): 0
Abundance Lachnospiraceae/[Ruminococcus]/gnavus (post, line r91): 325
Abundance S24-7/—/— (post, line r92): 153
Abundance Rikenellaceae/—/— (post, line r93): 134
Abundance Lachnospiraceae/[Ruminococcus]/gnavus (post, line r94): 30
Abundance Lachnospiraceae/—/— (post, line r95): 359
Abundance Clostridiaceae/Other/Other (post, line r96): 39
Abundance Lachnospiraceae/—/— (post, line r97): 239
Abundance Ruminococcaceae/Oscillospira/— (post, line r98): 138
Abundance Enterococcaceae/Enterococcus/— (post, line r99): 0
Abundance Rikenellaceae/—/— (post, line r100): 96
Abundance S24-7/—/— (post, line r101): 79
Abundance Lactobacillaceae/Lactobacillus/reuteri (post, line r102): 0
Abundance Bacteroidaceae/Bacteroides/acidifaciens (post, line r103): 127
Abundance Ruminococcaceae/Oscillospira/— (post, line r104): 451
Abundance Enterobacteriaceae/Escherichia/coli (post, line r105): 0
Abundance Ruminococcaceae/Oscillospira/— (post, line r106): 280
Abundance —/—/— (post, line r107): 254
Abundance S24-7/—/— (post, line r108): 92
Abundance —/—/— (post, line r109): 0
Abundance Other/Other/Other (post, line r110): 251
Abundance Lachnospiraceae/—/— (post, line r111): 163
Abundance Lachnospiraceae/[Ruminococcus]/gnavus (post, line r112): 63
Abundance Lachnospiraceae/—/— (post, line r113): 117
Abundance Enterobacteriaceae/Klebsiella/Other (post, line r114): 33
Abundance Lachnospiraceae/—/— (post, line r115): 187
Abundance —/—/— (post, line r117): 261
Abundance Lactobacillaceae/Lactobacillus/— (post, line r118): 0
Abundance Other/Other/Other (post, line r119): 248
Abundance —/—/— (post, line r120): 0
Abundance Erysipclotrichaceae/Allobaculum/— (post, line r121): 59
Abundance —/—/— (post, line r122): 84
Abundance Lachnospiraceae/—/— (post, line r123): 271
Abundance —/—/— (post, line r124): 173
Abundance Other/Other/Other (post, line r125): 269
Abundance Lactobacillaceae/Lactobacillus/reuteri (post, line r126): 0
Abundance Ruminococcaceae/Oscillospira/— (post, line r127): 273
Abundance Lachnospiraceae/—/— (post, line r128): 139
Abundance S24-7/—/— (post, line r129): 125
Abundance S24-7/—/— (post, line r130): 111
Abundance Lachnospiraceae/—/— (post, line r131): 119
Abundance S24-7/—/— (post, line r133): 74
Abundance Lachnospiraceae/—/— (post, line r134): 98
Abundance —/—/— (post, line r135): 376
Abundance Coriobacteriaceae/Adlercreutzia/— (post, line r136): 30
Abundance —/—/— (post, line r137): 118
Abundance Clostidiaceae/Other/Other (post, line r138): 0
Abundance Turicibacteraceae/Turicibacter/— (post, line r139): 0
Abundance Ruminococcaceae/Ruminococcus/— (post, line r140): 143
Abundance Ruminococcaceae/Oscillospira/— (post, line r141): 119
Abundance Dehalobacteriaceae/Dehalobacterium/— (post, line r142): 268
Abundance Staphylococcaceae/Staphylococcus/Other (post, line r143): 34
Abundance Rikenellaceae/—/— (post, line r144): 97
Abundance Lachnospiraceae/—/— (post, line r145): 98
Abundance —/—/— (post, line r146): 68
Abundance Staphylococcaceae/Staphylococcus/sciuri (post, line r147): 41
Abundance —/—/— (post, line r148): 0
Abundance Ruminococcaceae/Ruminococcus/— (post, line r149): 124
Abundance Coriobacteriaceae/Adlercreutzia/— (post, line r150): 0
Abundance Ruminococcaceae/Oscillospira/— (post, line r151): 120
Abundance Lachnospiraceae/Clostridium/Other (post, line r152): 40
Abundance Lachnospiraceae/Coprococcus/— (post, line r153): 85
Abundance Desulfovibrionaceae/—/— (post, line r154): 148
Abundance —/—/— (post, line r155): 103
Abundance Lachnospiraceae/—/— (post, line r156): 272
Abundance Dehalobacteriaceae/Dehalobacterium/— (post, line r157): 239
Abundance Coriobacteriaceae/Adlercreutzia/— (post, line r158): 0
Abundance Lachnospiraceae/—/— (post, line r159): 119
Abundance Lachnospiraceae/—/— (post, line r160): 14
Abundance S24-7/—/— (post, line r162): 51
Abundance Streptococcaceae/Streptococcus/— (post, line r163): 44
Abundance Lachnospiraceae/[Ruminococcus]/gnavus (post, line r164): 37
Abundance Lachnospiraceae/—/— (post, line r165): 173
Abundance Lachnospiraceae/—/— (post, line r166): 10
Abundance Coriobacteriaceae/Adlercreutzia/— (post, line r167): 8
Abundance Lachnospiraceae/—/— (post, line r168): 57
Abundance Erysipelotrichaceae/Clostridium/cocleatum (post, line r169): 119
Abundance Lachnospiraceae/—/— (post, line r171): 81
Abundance Bacteroidaceae/Bacteroides/— (post, line r172): 468
Abundance Ruminococcaceae/Oscillospira/— (post, line r173): 53
Abundance Ruminococcaceae/—/— (post, line r174): 72
Abundance Lachnospiraceae/Other/Other (post, line r175): 90
Abundance Lachnospiraceae/Dorea/— (post, line r176): 154
Abundance Lachnospiraceae/—/— (post, line r177): 94
Abundance S24-7/—/— (post, line r178): 0
Abundance Lachnospiraceae/—/— (post, line r179): 138
Abundance Lactobacillaceae/Lactobaccilus/Other (post, line r180): 0
Abundance —/—/— (post, line r181): 48
Abundance Ruminococcaceae/Oscillospira/— (post, line r182): 101
Abundance S24-7/—/— (post, line r184): 71
Abundance [Mogibacteriaceae]/—/— (post, line r185): 28
Abundance Peptococcaceae/—/— (post, line r186): 42
Abundance —/—/— (post, line r187): 40
Abundance —/—/— (post, line r188): 213
Abundance S24-7/—/— (post, line r189): 19
Abundance: Ruminococcaceae, Oscillospira, — (pre (baseline), line r191): 97
Abundance: Lachnospiraceae, [Ruminococcus], gnavus (pre (baseline), line r192): 33
